{
  "source": "paper PMC10255569",
  "about": "“Discovery of Peptidic Ligands against the SARS-CoV-2 Spike Protein and Their Use in the Development of a Highly Sensitive Personal Use Colorimetric COVID-19 Biosensor” (ACS Sensors, 2023)",
  "biological_target": "Delta-variant SARS-CoV-2 spike protein receptor-binding domain (L452R, T478K) (Severe acute respiratory syndrome coronavirus 2, UniProt P0DTC2, L452R/T478K)",
  "design": "species or system SARS-CoV-2 Delta variant",
  "note": "Entries after “also recorded” stand apart in the source; their conditions may differ. Non-standard residues stand in square brackets, D forms with d. Residues, ends and D or L forms follow the SMILES beside them. *: point of attachment. Biotin = O=C1N[C@H]2[C@H](CS[C@H]2CCCCC(=O)*)N1; Phe(3,5-F2) = N[C@@H](Cc1cc(F)cc(F)c1)C(=O)O; hCit = NC(=O)NCCCC[C@H](N)C(=O)O; Aad = N[C@@H](CCCC(=O)O)C(=O)O; Nva = CCC[C@H](N)C(=O)O; AEEA = NCCOCCOCC(=O)O",
  "data": [
    {"molecule": "CCC[C@H](NC(=O)[C@H](CCCCNC(N)=O)NC(=O)[C@H](CCCNC(=N)N)NC(=O)[C@H](Cc1ccc(OC)cc1)NC(=O)[C@H](N)Cc1c[nH]cn1)C(=O)N[C@@H](CCCNC(=N)N)C(=O)N[C@@H](Cc1cc(F)cc(F)c1)C(=O)N[C@@H](Cc1ccccc1)C(=O)N[C@@H](CCCC(=O)O)C(=O)NCCOCCOCC(=O)NCCOCCOCC(=O)N[C@@H](CCCCNC(=O)CCCC[C@@H]1SC[C@@H]2NC(=O)N[C@@H]21)C(N)=O", "note": "[L10-2] (H-[dH]Y(Me)R[hCit][Nva]R[Phe(3,5-F2)]F[Aad][AEEA][AEEA]K(Biotin)-NH2)", "values": [
      {"measurement": "RMax", "value": "0.11 ± 0.004"},
      {"measurement": "binding to the Delta variant of spike protein RBD (in words)", "value": "able to bind to the Delta variant of spike protein RBD with similar affinity; also recorded: can bind to S-protein from the SARS-CoV-2 Delta variant"}
    ]}
  ]
}
